Laboratory results as given in patent US20260048051A1, “TREATMENT OF INFLAMMATORY BOWEL DISEASE” (Atomwise Inc., priority 2024, published 2026).
Read-outs that look alike come from different tables or passages of the source.

Test: Plasma and tissue distribution in SD rats
Type: in vivo
Details: for Kp / AUC(0-t): rat, 10 mg/kg; for AUC(0-t): plasma
Description: The following Example describes the methods and data used to evaluate the tissue distribution of TYK2 inhibitors following the administration of either compound 1 or compound 2.
Thirty (30, 15/sex) SD rats supplied by Beijing Vital River Laboratory Animal Technology Co., Ltd. were used in this study. The animals were confirmed to be healthy before being assigned to the study. The room (s) was controlled and monitored for relative humidity (targeted mean range 40% to 70%) and temperature (targeted mean range 20° C. to 26° C.) with 15 or above air changes/hour. The room was on a 12-hour light/dark cycle except when interruptions were necessitated by study activities. Fresh drinking water (reverses osmosis) was available to all animals, ad libitum. Certified animal diet from certified vendor was available to all animals, ad libitum.
Animals were weighed prior to dose administration to calculate the actual dose volume. The body weights were in the range from 245.39 to 276.33 g for males and 182.29 to 215.69 g for females on the first dosing day. The animals in Groups 1 and 2 received a single oral gavage administration of test compound 1. Cage-side observations for the general health condition and appearance of the animal were performed before and after dosing and at each time point of sample collection. Unusual observations were recorded throughout the duration of the study.
The vehicle was 0.5% methyl cellulose (4000 cps) in water. The formulation was prepared according to the following steps. Group 1: 25.95 mg of compound 1 was weighed into a glass vial. 5000 μL of vehicle was added into the vial and stirred for 30 min at 1700 rpm to get a homogenous opaque suspension. 5000 μL of vehicle was added into the vial and stirred for 10 min at 1700 rpm to get a homogenous opaque suspension. 5000 μL+5000 μL+5000 μL+924 μL of vehicle was added into the vial and stirred for 10 min at 1700 rpm to get a homogenous opaque suspension. Group 2: 81.66 mg of compound 1 was weighed into a glass vial. 5000 μL of vehicle was added into the vial and stirred for 30 min at 1700 rpm to get a homogenous opaque suspension. 5000 μL of vehicle was added into the vial and stirred for 10 min at 1700 rpm to get a homogenous opaque suspension. 10 mL+10 mL+10 mL+20 mL+10 mL+10 mL+1580 μL of vehicle was added into the vial and stirred for 10 min at 1700 rpm to get a homogenous opaque suspension.
Blood (about 0.2 mL) was collected at each time point via jugular vein puncture from each study animal. The actual time for each sample collection was recorded. The acceptable deviations on sampling time were ±1 min for the time points pre-dose through 1 hour post-dose, and +5% of the nominal time for time points after 1 hour post-dose.
All blood samples were transferred into commercial tubes containing K2-EDTA. After blood was collected, the samples were placed on wet ice and processed for plasma within 60 minutes of collection by centrifugation at approximately 4° C., 3200×g for 10 minutes, and then quickly frozen over dry ice and kept at −60° C. or lower until LC-MS/MS analysis.
Following terminal blood sample collection, animals were conducted CO2 euthanasia, the chest and abdominal cavities were opened carefully lengthwise using scissors to expose the internal organs in preparation of tissue perfusion. A needle was used to puncture a small hole into the left ventricle of the heart, and then clamped with a hemostat. […] Fluid (cold 1×PBS) was infused until the liver pales (typically 2-3 minutes). Following perfusion, 14 kinds of tissues (spleen, bone marrow, adipose, brain, heart, kidney, liver, lung, skin, small intestine, large intestine, eye, gonads, and bladder) were collected from each animal, respectively.
Each tissue was weighed and homogenized on wet ice using homogenizing buffer (MeOH/15 mM PBS 1:2) at the ratio of 1:9 (1 g tissue with 9 mL buffer). The tissue homogenate was kept at −60° C. or lower until LC-MS/MS analysis. […]

[1] = female SD rat, PO 10 mg/kg, Spleen
[2] = male SD rat, PO 10 mg/kg, Bladder
[3] = male SD rat, PO 10 mg/kg, Bone Marrow
[4] = male SD rat, PO 10 mg/kg, Epididymis & Testis
[5] = male SD rat, PO 10 mg/kg, Eyeball (left and right)
[6] = male SD rat, PO 10 mg/kg, Heart
[7] = male SD rat, PO 10 mg/kg, Kidney (left and right)
[8] = male SD rat, PO 10 mg/kg, Large intestine
[9] = male SD rat, PO 10 mg/kg, Liver
[10] = male SD rat, PO 10 mg/kg, Small intestine
[11] = male SD rat, PO 10 mg/kg, Spleen
[12] = ovary and uterus, female SD rat, PO 10 mg/kg, Ovary & Uterus

C[C@@H](c1ccc(Nc2cc(Nc3ncccc3S(C)(=O)=O)ncn2)nc1)N1CC2(COC2)C1 [Compound 1, (S)—N^4-(5-(1-(2-oxa-6-azaspiro[3.3]heptan-6-yl)ethyl)pyridin-2-yl)-N^6-(3-(methylsulfonyl)pyridin-2-yl)pyrimidine-4,6-diamine]
AUC0-24 [1]: 22131 ng·h/g | AUC0-inf [1]: 22145 ng·h/g | AUC0-last [1]: 19543 ng·h/g | Cmax [1]: 4430 ng/g | Tmax [1]: 0.5 h | half-life [1]: 2.62 h | Kp (female, SD, bladder, po, female SD rat, PO 10 mg/kg, Bladder, Tissue AUC0-last/Plasma AUC0-last, read-out: AUC Ratio): 5.12 | Kp (female, SD, bone marrow, po, female SD rat, PO 10 mg/kg, Bone Marrow, Tissue AUC0-last/Plasma AUC0-last, read-out: AUC Ratio): 4.64 | Kp (female, SD, eyeball (left and right), po, female SD rat, PO 10 mg/kg, Eyeball (left and right), Tissue AUC0-last/Plasma AUC0-last, read-out: AUC Ratio): 0.953 | Kp (female, SD, fat, po, female SD rat, PO 10 mg/kg, Fat, Tissue AUC0-last/Plasma AUC0-last, read-out: AUC Ratio): 0.506 | Kp (female, SD, heart, po, female SD rat, PO 10 mg/kg, Heart, Tissue AUC0-last/Plasma AUC0-last, read-out: AUC Ratio): 1.39 | Kp (female, SD, kidney (left and right), po, female SD rat, PO 10 mg/kg, Kidney (left and right), Tissue AUC0-last/Plasma AUC0-last, read-out: AUC Ratio): 30.6 | Kp (female, SD, large intestine, po, female SD rat, PO 10 mg/kg, Large intestine, Tissue AUC0-last/Plasma AUC0-last, read-out: AUC Ratio): 11.6 | Kp (female, SD, liver, po, female SD rat, PO 10 mg/kg, Liver, Tissue AUC0-last/Plasma AUC0-last, read-out: AUC Ratio): 8.67 | Kp (female, SD, lung, po, female SD rat, PO 10 mg/kg, Lung, Tissue AUC0-last/Plasma AUC0-last, read-out: AUC Ratio): 2.57 | Kp (female, SD, ovary and uterus, po, female SD rat, PO 10 mg/kg, Ovary & Uterus, Tissue AUC0-last/Plasma AUC0-last, read-out: AUC Ratio): 1.29 | Kp (female, SD, skin, po, female SD rat, PO 10 mg/kg, Skin, Tissue AUC0-last/Plasma AUC0-last, read-out: AUC Ratio): 1.11 | Kp (female, SD, small intestine, po, female SD rat, PO 10 mg/kg, Small intestine, Tissue AUC0-last/Plasma AUC0-last, read-out: AUC Ratio): 17.5 | Kp (female, SD, spleen, po, female SD rat, PO 10 mg/kg, Spleen, Tissue AUC0-last/Plasma AUC0-last, read-out: AUC Ratio): 5.73 | Kp (female, Sprague-Dawley, ovaries, oral, SD rat, Ovaries, read-out: Tissue/Plasma Ratio (AUCinf)): 1.4 | AUC(0-t) (female, Sprague-Dawley, po, female SD rat, PO 10 mg/kg, read-out: AUC0-24): 3.61 µg·h/mL | AUC(0-t) (female, Sprague-Dawley, po, female SD rat, PO 10 mg/kg, read-out: AUC0-last): 3.41 µg·h/mL | AUC0-24 [2]: 14526 ng·h/g | AUC0-inf [2]: 14666 ng·h/g | AUC0-last [2]: 14526 ng·h/g | Cmax [2]: 2980 ng/g | Tmax [2]: 2 h | half-life [2]: 3.38 h | AUC0-24 [3]: 10736 ng·h/g | AUC0-inf [3]: 10835 ng·h/g | AUC0-last [3]: 10736 ng·h/g | Cmax [3]: 2900 ng/g | Tmax [3]: 0.5 h | half-life [3]: 3.51 h | AUC0-24 [4]: 5163 ng·h/g | AUC0-last [4]: 5163 ng·h/g | AUC0-24 [5]: 1795 ng·h/g | AUC0-inf [5]: 1830 ng·h/g | AUC0-last [5]: 1332 ng·h/g | AUC0-24 (male SD rat, PO 10 mg/kg, Fat): 1703 ng·h/g | AUC0-inf (male SD rat, PO 10 mg/kg, Fat): 1716 ng·h/g | AUC0-last (male SD rat, PO 10 mg/kg, Fat): 1388 ng·h/g | AUC0-24 [6]: 3366 ng·h/g | AUC0-inf [6]: 3374 ng·h/g | AUC0-last [6]: 3004 ng·h/g | AUC0-24 [7]: 23128 ng·h/g | AUC0-inf [7]: 23415 ng·h/g | AUC0-last [7]: 23128 ng·h/g | AUC0-24 [8]: 45091 ng·h/g | AUC0-last [8]: 45091 ng·h/g | AUC0-24 [9]: 20288 ng·h/g | AUC0-inf [9]: 20534 ng·h/g | AUC0-last [9]: 20288 ng·h/g | Cmax [9]: 5400 ng/g | Tmax [9]: 0.5 h | half-life [9]: 3.87 h | AUC0-24 (male SD rat, PO 10 mg/kg, Lung): 5806 ng·h/g | AUC0-inf (male SD rat, PO 10 mg/kg, Lung): 5835 ng·h/g | AUC0-last (male SD rat, PO 10 mg/kg, Lung): 4926 ng·h/g | Cmax (male SD rat, PO 10 mg/kg, Lung): 1960 ng/g | Tmax (male SD rat, PO 10 mg/kg, Lung): 0.5 h | half-life (male SD rat, PO 10 mg/kg, Lung): 2.7 h | AUC0-24 (male SD rat, PO 10 mg/kg, Skin): 7864 ng·h/g | AUC0-inf (male SD rat, PO 10 mg/kg, Skin): 9352 ng·h/g | AUC0-last (male SD rat, PO 10 mg/kg, Skin): 7864 ng·h/g | Cmax (male SD rat, PO 10 mg/kg, Skin): 868 ng/g | Tmax (male SD rat, PO 10 mg/kg, Skin): 0.5 h | half-life (male SD rat, PO 10 mg/kg, Skin): 8.6 h | AUC0-24 [10]: 73082 ng·h/g | AUC0-inf [10]: 73697 ng·h/g | AUC0-last [10]: 73822 ng·h/g | Cmax [10]: 16500 ng/g | Tmax [10]: 0.5 h | half-life [10]: 3.41 h | AUC0-24 [11]: 13189 ng·h/g | AUC0-inf [11]: 13631 ng·h/g | AUC0-last [11]: 13189 ng·h/g | Cmax [11]: 4230 ng/g | Tmax [11]: 0.5 h | half-life [11]: 4.91 h | Kp (male, SD, bladder / plasma, po, male SD rat, PO 10 mg/kg, Bladder, Tissue AUC0-last/Plasma AUC0-last, read-out: AUC Ratio): 3.37 | Kp (male, SD, bone marrow / plasma, po, male SD rat, PO 10 mg/kg, Bone Marrow, Tissue AUC0-last/Plasma AUC0-last, read-out: AUC Ratio): 3.97 | Kp (male, SD, large intestine / plasma, po, male SD rat, PO 10 mg/kg, Large intestine, Tissue AUC0-last/Plasma AUC0-last, read-out: AUC Ratio): 16.7 | Kp (male, SD, liver / plasma, po, male SD rat, PO 10 mg/kg, Liver, Tissue AUC0-last/Plasma AUC0-last, read-out: AUC Ratio): 7.5 | Kp (male, SD, lung / plasma, po, male SD rat, PO 10 mg/kg, Lung, Tissue AUC0-last/Plasma AUC0-last, read-out: AUC Ratio): 1.82 | Kp (male, SD, skin / plasma, po, male SD rat, PO 10 mg/kg, Skin, Tissue AUC0-last/Plasma AUC0-last, read-out: AUC Ratio): 2.91 | Kp (male, SD, small intestine / plasma, po, male SD rat, PO 10 mg/kg, Small intestine, Tissue AUC0-last/Plasma AUC0-last, read-out: AUC Ratio): 27 | Kp (male, SD, spleen / plasma, po, male SD rat, PO 10 mg/kg, Spleen, Tissue AUC0-last/Plasma AUC0-last, read-out: AUC Ratio): 4.88 | Kp (male, Sprague-Dawley, epididymis and testis, po, male SD rat, PO 10 mg/kg, Epididymis & Testis, Tissue AUC0-last/Plasma AUC0-last, read-out: AUC Ratio): 1.91 | Kp (male, Sprague-Dawley, eyeball (left and right), po, male SD rat, PO 10 mg/kg, Eyeball (left and right), Tissue AUC0-last/Plasma AUC0-last, read-out: AUC Ratio): 0.492 | Kp (male, Sprague-Dawley, fat, po, male SD rat, PO 10 mg/kg, Fat, Tissue AUC0-last/Plasma AUC0-last, read-out: AUC Ratio): 0.513 | Kp (male, Sprague-Dawley, heart, po, male SD rat, PO 10 mg/kg, Heart, Tissue AUC0-last/Plasma AUC0-last, read-out: AUC Ratio): 1.11 | Kp (male, Sprague-Dawley, kidney (left and right), po, male SD rat, PO 10 mg/kg, Kidney (left and right), Tissue AUC0-last/Plasma AUC0-last, read-out: AUC Ratio): 8.35 | AUC(0-t) (male, Sprague-Dawley, po, male SD rat, PO 10 mg/kg, read-out: AUC0-24): 2.91 µg·h/mL | AUC(0-t) (male, Sprague-Dawley, po, male SD rat, PO 10 mg/kg, read-out: AUC0-last): 2.71 µg·h/mL | Kp (male, Sprague-Dawley, testis, oral, SD rat, Testis, read-out: Tissue/Plasma Ratio (AUCinf)): 1.6 | Cmax [12]: 976 ng/g | Tmax [12]: 0.5 h | half-life [12]: 2.68 h
